Assay results: ChEMBL document CHEMBL5523740, “Discovery of Potent and Selective c-Met Degraders for Hepatocellular Carcinoma Treatment” (J Med Chem, 2024)
Active and inactive are the calls of the source. The calls are words filed in the database; no cut-off is given here.

Tests used:
[1] = tested on: MHCC97H; assay: Antiproliferative activity against human MHCC97H cells incubated for 24 hrs by CCK8 assay; type: functional, cell-based
[2] = molecular target: T1, Hepatocyte growth factor receptor (Homo sapiens, UniProt P08581); assay: Induction of c-Met degradation in human MHCC97H cells at 1 uM incubated for 24 hrs by Western blotting analysis; type: cell-based
[3] = molecular target: T1, Hepatocyte growth factor receptor; assay: Induction of c-Met degradation in human MHCC97H cells incubated for 24 hrs by Western blotting analysis; type: cell-based
[4] = molecular target: T1, Hepatocyte growth factor receptor; assay: Induction of c-Met degradation in human MHCC97H cells at 500 nM by Western blotting analysis; type: cell-based; conditions: time 3-48 hrs, TDE = time-dependent effect
[5] = molecular target: T1, Hepatocyte growth factor receptor; assay: Induction of c-Met degradation in human MHCC97H cells assessed as downregulation of c-Met protein level at 500 nM after 24 hrs by Western blotting analysis; type: cell-based
[6] = molecular target: T1, Hepatocyte growth factor receptor; assay: Induction of c-Met degradation in human Huh-7 cells incubated for 24 hrs by Western blotting analysis; type: cell-based; conditions: dose 63-100 nM
[7] = tested on: MHCC97H; assay: Inhibition of cell growth in human MHCC97H cells incubated for 5 days by microplate reader assay; type: functional, cell-based; conditions: time 5.0 day
[8] = tested on: MHCC97H; assay: Induction of cell cycle arrest in human MHCC97H cells assessed as accumulation of cells at G1 phase at 3 nM incubated for 24 hrs by PI staining based flow cytometry analysis (reference value: 70.4%); type: functional
[9] = tested on: MHCC97H; assay: Induction of cell cycle arrest in human MHCC97H cells assessed as accumulation of cells at G2 phase at 3 nM incubated for 24 hrs by PI staining based flow cytometry analysis (reference value: 19.1%); type: functional
[10] = tested on: MHCC97H; assay: Induction of cell cycle arrest in human MHCC97H cells assessed as accumulation of cells at G2 phase at 10 nM incubated for 24 hrs by PI staining based flow cytometry analysis (reference value: 19.1%); type: functional
[11] = tested on: MHCC97H; assay: Induction of apoptosis in human MHCC97H cells assessed as early apoptotic cells at 3 nM incubated for 24 hrs by Annexin-V-FITC/PI staining based flow cytometry analysis (reference value: 7.70%); type: functional
[12] = tested on: MHCC97H; assay: Induction of apoptosis in human MHCC97H cells assessed as late apoptotic cells at 3 nM incubated for 24 hrs by Annexin-V-FITC/PI staining based flow cytometry analysis (reference value: 4.24%); type: functional
[13] = tested on: MHCC97H; assay: Induction of apoptosis in human MHCC97H cells assessed as late apoptotic cells at 10 nM incubated for 24 hrs by Annexin-V-FITC/PI staining based flow cytometry analysis (reference value: 4.24%); type: functional
[14] = tested on: MHCC97H; assay: Induction of apoptosis in human MHCC97H cells assessed as necrotic cells at 10 nM incubated for 24 hrs by Annexin-V-FITC/PI staining based flow cytometry analysis (reference value: 1.77%); type: functional
[15] = tested on: MHCC97H; assay: Induction of apoptosis in human MHCC97H cells assessed as necrotic cells at 100 nM incubated for 24 hrs by Annexin-V-FITC/PI staining based flow cytometry analysis (reference value: 1.77%); type: functional
[16] = tested on: MHCC97H; assay: Antitumor activity against human MHCC97H cells xenografted in BALB/c mouse assessed as tumor growth inhibition at 20 mg/kg, po qd for 22 days and measured every 2 days; type: functional; conditions: 528 h, time 22 day, read-out: TGI
[17] = tested on: MHCC97H; assay: Antitumor activity against human MHCC97H cells xenografted in BALB/c mouse assessed as reduction in tumor positive cells at 10 mg/kg, ip qd for 22 days and measured every 2 days by Ki67 staining based analysis; type: functional, organism-based; conditions: time 22.0 day
[18] = Toxicity in BALB/c mouse xenografted with human MHCC97H cells assessed as reduction in body weight at 20 mg/kg, po qd for 22 days and measured every 2 days; type: organism-based; conditions: in vivo, 528 h, time 22 day
[19] = Toxicity in BALB/c mouse xenografted with human MHCC97H cells assessed as kidney lesions at 10 mg/kg, ip qd for 22 days and measured every 2 days by H and E staining based assay; type: organism-based; conditions: in vivo, 528 h, time 22 day
[20] = Toxicity in BALB/c mouse xenografted with human MHCC97H cells assessed as lung lesions at 10 mg/kg, ip qd for 22 days and measured every 2 days by H and E staining based assay; type: organism-based; conditions: in vivo, 528 h, time 22 day
[21] = Toxicity in BALB/c mouse xenografted with human MHCC97H cells assessed as spleen lesions at 10 mg/kg, ip qd for 22 days and measured every 2 days by H and E staining based assay; type: organism-based; conditions: in vivo, 528 h, time 22 day
[22] = Toxicity in BALB/c mouse xenografted with human MHCC97H cells assessed as heart lesions at 10 mg/kg, ip qd for 22 days and measured every 2 days by H and E staining based assay; type: organism-based; conditions: in vivo, 528 h, time 22 day
[23] = Toxicity in BALB/c mouse xenografted with human MHCC97H cells assessed as liver lesions at 20 mg/kg, po qd for 22 days and measured every 2 days by H and E staining based assay; type: organism-based; conditions: in vivo, 528 h, time 22 day
[24] = Toxicity in BALB/c mouse xenografted with human MHCC97H cells assessed as spleen lesions at 20 mg/kg, po qd for 22 days and measured every 2 days by H and E staining based assay; type: organism-based; conditions: in vivo, 528 h, time 22 day
[25] = tested on: Mus musculus; assay: Downregulation of phosphorylated STAT3 level in BALB/c mouse tumor xenografted with human MHCC97H cells at 20 mg/kg, po qd for 22 days and measured every 2 days by Western blotting analysis; type: functional, organism-based; conditions: time 22.0 day
[26] = tested on: Mus musculus; assay: Downregulation of c-Met protein level in BALB/c mouse tumor xenografted with human MHCC97H cells at 20 mg/kg, po qd for 22 days and measured every 2 days by Western blotting analysis; type: functional, organism-based; conditions: time 22.0 day
[27] = AUC(0 to infinity) in Sprague-Dawley rat at 1 mg/kg, iv by LC-MS/MS method; type: ADME, organism-based; conditions: in vivo
[28] = Cmax in Sprague-Dawley rat at 1 mg/kg, iv by LC-MS/MS method; type: ADME, organism-based; conditions: in vivo
[29] = Mean residence time (0 to infinity) in Sprague-Dawley rat at 1 mg/kg, iv by LC-MS/MS method; type: ADME, organism-based; conditions: in vivo
[30] = Clearance in Sprague-Dawley rat at 1 mg/kg, iv by LC-MS/MS method; type: ADME, organism-based; conditions: in vivo
[31] = Cmax in Sprague-Dawley rat at 10 mg/kg, po by LC-MS/MS method; type: ADME, organism-based; conditions: in vivo
[32] = Mean residence time (0 to infinity) in Sprague-Dawley rat at 10 mg/kg, po by LC-MS/MS method; type: ADME, organism-based; conditions: in vivo
[33] = Tmax in Sprague-Dawley rat at 10 mg/kg, po by LC-MS/MS method; type: ADME, organism-based; conditions: in vivo
[34] = Clearance in Sprague-Dawley rat at 10 mg/kg, po by LC-MS/MS method; type: ADME, organism-based; conditions: in vivo
[35] = Oral bioavailability in Sprague-Dawley rat at 10 mg/kg by LC-MS/MS method; type: ADME, organism-based; conditions: in vivo
[36] = tested on: BaF3; assay: Antiproliferative activity against mouse BaF3 cells harboring TPR-MET D1228N mutant fusion protein incubated for 72 hrs by CellTiter-Glo reagent based assay; type: functional, cell-based; conditions: BaF3, 72 h
[37] = tested on: BaF3; assay: Antiproliferative activity against mouse BaF3 cells harboring TPR-MET Y1230H mutant fusion protein incubated for 72 hrs by CellTiter-Glo reagent based assay; type: functional, cell-based; conditions: BaF3, 72 h

T1 sequence (P08581 whole entry): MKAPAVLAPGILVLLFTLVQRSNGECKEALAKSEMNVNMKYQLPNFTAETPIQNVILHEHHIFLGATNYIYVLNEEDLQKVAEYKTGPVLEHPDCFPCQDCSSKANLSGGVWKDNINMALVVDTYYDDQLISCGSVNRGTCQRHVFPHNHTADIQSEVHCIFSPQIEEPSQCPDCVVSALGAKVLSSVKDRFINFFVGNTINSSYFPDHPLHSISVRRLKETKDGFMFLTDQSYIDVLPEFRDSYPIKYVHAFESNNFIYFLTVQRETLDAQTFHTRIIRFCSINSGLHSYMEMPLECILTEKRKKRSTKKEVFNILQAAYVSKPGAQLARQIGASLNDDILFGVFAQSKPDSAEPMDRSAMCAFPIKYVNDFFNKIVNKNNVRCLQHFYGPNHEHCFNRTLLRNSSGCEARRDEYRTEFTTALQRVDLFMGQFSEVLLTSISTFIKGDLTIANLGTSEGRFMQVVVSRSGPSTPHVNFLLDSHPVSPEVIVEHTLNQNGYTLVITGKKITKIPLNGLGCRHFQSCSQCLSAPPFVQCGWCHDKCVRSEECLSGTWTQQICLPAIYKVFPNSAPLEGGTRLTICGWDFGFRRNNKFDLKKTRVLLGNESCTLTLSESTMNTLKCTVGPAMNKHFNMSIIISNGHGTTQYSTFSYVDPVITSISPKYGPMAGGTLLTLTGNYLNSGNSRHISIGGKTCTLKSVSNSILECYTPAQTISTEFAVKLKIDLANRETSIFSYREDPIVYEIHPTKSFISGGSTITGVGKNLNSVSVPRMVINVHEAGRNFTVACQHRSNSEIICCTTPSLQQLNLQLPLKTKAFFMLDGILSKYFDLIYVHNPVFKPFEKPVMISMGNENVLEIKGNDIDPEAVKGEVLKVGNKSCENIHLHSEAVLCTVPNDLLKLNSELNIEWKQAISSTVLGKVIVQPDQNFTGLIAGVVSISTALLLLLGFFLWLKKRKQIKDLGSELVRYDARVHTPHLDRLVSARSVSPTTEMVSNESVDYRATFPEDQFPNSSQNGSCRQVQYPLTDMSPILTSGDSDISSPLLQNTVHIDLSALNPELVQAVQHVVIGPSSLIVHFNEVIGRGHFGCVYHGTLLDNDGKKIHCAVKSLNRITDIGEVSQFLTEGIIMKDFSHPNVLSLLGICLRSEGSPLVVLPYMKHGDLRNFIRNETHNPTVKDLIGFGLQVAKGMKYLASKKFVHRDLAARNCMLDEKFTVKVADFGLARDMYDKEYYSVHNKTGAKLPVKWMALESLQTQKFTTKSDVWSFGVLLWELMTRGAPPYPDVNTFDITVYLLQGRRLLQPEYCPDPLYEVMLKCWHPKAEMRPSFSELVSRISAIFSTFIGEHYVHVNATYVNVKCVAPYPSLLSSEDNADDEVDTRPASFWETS

Activity [2]: 84.8% | DC50 [3]: 226 nM | Activity ([3]; dose 63-100 nM): Dose-Dependent Effect | Activity [4]: Tde | Activity [5]: Active | Activity [6]: Dose-Dependent Effect | AUC(0-inf) [27]: 994 ng·h/mL | Cmax [28]: 1630 ng/mL | MRT inf [29]: 3.86 h | clearance [30]: 17.5 mL/min/kg | Cmax [31]: 16.3 ng/mL | MRT inf [32]: 3.73 h | Tmax [33]: 1.17 h | CL/F [34]: 3310 mL/min/kg | bioavailability [35]: 0.8% | IC50 [36]: 463 nM | IC50 [37]: 378 nM
SMILES: N#Cc1cccc(-c2ccc(=O)n(Cc3cccc(-c4ncc(OCC5CCN(CCCCCC(=O)NCC67CC8CC(CC(C8)C6)C7)CC5)cn4)c3)n2)c1
IC50 [1]: 2.62 nM | inhibition [7]: Active | Activity [8]: 74.6% | Activity [9]: 15.9% | Activity [10]: 14.3% | Activity [11]: 16% | Activity [12]: 3.76% | Activity [13]: 6.18% | Activity [14]: 1.4% | Activity [15]: 1.35% | inhibition in vivo at 20 mg/kg [16]: 52.5% | Activity [17]: Active | Activity [18]: Non-Toxic | Activity [19]: Non-Toxic | Activity [20]: Non-Toxic | Activity [21]: Non-Toxic | Activity [22]: Non-Toxic | Activity [23]: Non-Toxic | Activity [24]: Non-Toxic | Activity [25]: Active | Activity [26]: Active
